Data from PubChem BioAssay AID256 (DTP/NCI, 2004).
Values joined by “and” are separate entries in the source; they are usually repeats but may differ in a detail not shown here. Equal values may be shown once. Inconclusive results and toxic doses are left out.

Tested on: CD2F1 mice, L1210 leukemia ip, survival T/C
Experiment: NCI In Vivo Anticancer Drug Screen. Data for tumor model L1210 Leukemia (intraperitoneal) in CD2F1 (CDF1) mice
Conditions: higher = longer survival
Method in brief: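 Implant tumor; dose compound or vehicle; measure endpoint in both groups; report treated divided by control.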

[1] = endpoint: mean survival time, dose: 100.0 mg/kg/injection, schedule: Q04DX003 (ip), vehicle: saline with Tween-80
[2] = endpoint: mean survival time, dose: 200.0 mg/kg/injection, schedule: Q04DX003 (ip), vehicle: saline with Tween-80
[3] = endpoint: mean survival time, dose: 400.0 mg/kg/injection, schedule: Q04DX003 (ip), vehicle: saline with Tween-80
[4] = endpoint: mean survival time, dose: 100.0 mg/kg/injection, schedule: Q01DX009 (ip), vehicle: saline with Tween-80
[5] = endpoint: mean survival time, dose: 200.0 mg/kg/injection, schedule: Q01DX009 (ip), vehicle: saline with Tween-80
[6] = endpoint: mean survival time, dose: 400.0 mg/kg/injection, schedule: Q01DX009 (ip), vehicle: saline with Tween-80
[7] = endpoint: mean survival time, dose: 100.0 mg/kg/injection, schedule: Q01DX001 (ip), vehicle: saline with Tween-80
[8] = endpoint: mean survival time, dose: 200.0 mg/kg/injection, schedule: Q01DX001 (ip), vehicle: saline with Tween-80
[9] = endpoint: mean survival time, dose: 400.0 mg/kg/injection, schedule: Q01DX001 (ip), vehicle: saline with Tween-80

For `COc1cccc2c1C(=O)c1c(O)c3c(c(O)c1C2=O)C[C@@](O)(/C(C)=N\NC(=O)CO)C[C@@H]3OC1CC(N)C(O)C(C)O1` (stereo not given in full), the T/C (endpoint: mean survival time, dose: 0.25 mg/kg/injection, schedule: Q01DX009 (ip), vehicle: water) was 103 % of control, the T/C (endpoint: mean survival time, dose: 0.5 mg/kg/injection, schedule: Q01DX009 (ip), vehicle: water) was 101 % of control and the T/C (endpoint: mean survival time, dose: 0.78 mg/kg/injection, schedule: Q01DX009 (ip), vehicle: water) was 107 % of control. The T/C (endpoint: mean survival time, dose: 1.0 mg/kg/injection, schedule: Q01DX009 (ip), vehicle: water) was 98 % of control, the T/C (endpoint: mean survival time, dose: 1.0 mg/kg/injection, schedule: Q04DX003 (ip), vehicle: saline with Tween-80) was 115 % of control and the T/C (endpoint: mean survival time, dose: 1.56 mg/kg/injection, schedule: Q01DX009 (ip), vehicle: water) was 107 % of control. For the same compound, the T/C (endpoint: mean survival time, dose: 2.0 mg/kg/injection, schedule: Q01DX009 (ip), vehicle: water) was 106 % of control, the T/C (endpoint: mean survival time, dose: 2.0 mg/kg/injection, schedule: Q04DX003 (ip), vehicle: saline with Tween-80) was 113 % of control and the T/C (endpoint: mean survival time, dose: 3.13 mg/kg/injection, schedule: Q01DX009 (ip), vehicle: water) was 119 % of control. For the same compound, the T/C (endpoint: mean survival time, dose: 4.0 mg/kg/injection, schedule: Q01DX009 (ip), vehicle: water) was 111 % of control, the T/C (endpoint: mean survival time, dose: 4.0 mg/kg/injection, schedule: Q04DX003 (ip), vehicle: saline with Tween-80) was 117 % of control and the T/C (endpoint: mean survival time, dose: 8.33 mg/kg/injection, schedule: Q04DX003 (ip), vehicle: saline) was 121 % of control. The T/C (endpoint: mean survival time, dose: 12.5 mg/kg/injection, schedule: Q01DX009 (ip), vehicle: saline) was 101 % of control and the T/C (endpoint: mean survival time, dose: 12.5 mg/kg/injection, schedule: Q01DX009 (ip), vehicle: water) was 115 % of control.

With `NC(=S)N/N=C/c1ccc(OC(F)(F)F)cn1` the T/C (endpoint: mean survival time, dose: 1.56 mg/kg/injection, schedule: Q01DX009 (ip), vehicle: other) was 104 % of control, the T/C (endpoint: mean survival time, dose: 3.13 mg/kg/injection, schedule: Q01DX009 (ip), vehicle: other) was 100 % of control and the T/C (endpoint: mean survival time, dose: 6.25 mg/kg/injection, schedule: Q01DX009 (ip), vehicle: other) was 108 % of control. For the same compound, the T/C (endpoint: mean survival time, dose: 12.5 mg/kg/injection, schedule: Q01DX009 (ip), vehicle: other) was 118 % of control, the T/C (endpoint: mean survival time, dose: 25.0 mg/kg/injection, schedule: Q04DX002 (ip), vehicle: other) was 89 % of control and the T/C (endpoint: mean survival time, dose: 50.0 mg/kg/injection, schedule: Q04DX002 (ip), vehicle: other) was 104 % of control. For the same compound, the T/C (endpoint: mean survival time, dose: 100.0 mg/kg/injection, schedule: Q04DX002 (ip), vehicle: other) was 115 % of control.

With `O=C1c2ccccc2S(=O)(=O)c2cccc(S(=O)(=O)c3ccccc3)c21` the T/C [1] was 98 % of control, the T/C [2] was 95 % of control and the T/C [3] was 90 % of control.

For `COc1ccc(-c2ccc(-c3ccc(S(=O)(=O)c4ccc(-c5ccc(-c6ccc(OC)cc6)cc5)c(N)c4)cc3N)cc2)cc1`, the T/C [4] was 110 % of control, the T/C [5] was 89 % of control and the T/C [6] was 89 % of control.

With `Cc1cc(NCCCCCCCNc2cc(C)nc3cc(N)ccc23)c2ccc(N)cc2n1` the T/C (endpoint: mean survival time, dose: 0.78 mg/kg/injection, schedule: Q01DX009 (ip), vehicle: saline with Tween-80) was 123 % of control and 110 % of control, the T/C (endpoint: mean survival time, dose: 1.56 mg/kg/injection, schedule: Q01DX009 (ip), vehicle: saline with Tween-80) was 121 % of control and 123 % of control and the T/C (endpoint: mean survival time, dose: 6.25 mg/kg/injection, schedule: Q01DX009 (ip), vehicle: saline with Tween-80) was 153 % of control. The T/C (endpoint: mean survival time, dose: 12.5 mg/kg/injection, schedule: Q01DX009 (ip), vehicle: saline with Tween-80) was 157 % of control and 183 % of control, the T/C (endpoint: mean survival time, dose: 25.0 mg/kg/injection, schedule: Q01DX009 (ip), vehicle: saline with Tween-80) was 104 % of control and the T/C (endpoint: median survival time, dose: 0.78 mg/kg/injection, schedule: Q01DX009 (ip), vehicle: distilled water + Tween-80) was 119 % of control. For the same compound, the T/C (endpoint: median survival time, dose: 0.78 mg/kg/injection, schedule: Q01DX009 (ip), vehicle: other) was 113 % of control, the T/C (endpoint: median survival time, dose: 1.56 mg/kg/injection, schedule: Q01DX009 (ip), vehicle: distilled water + Tween-80) was 121 % of control and the T/C (endpoint: median survival time, dose: 1.56 mg/kg/injection, schedule: Q01DX009 (ip), vehicle: other) was 120 % of control. For the same compound, the T/C (endpoint: median survival time, dose: 6.25 mg/kg/injection, schedule: Q01DX009 (ip), vehicle: other) was 150 % of control, the T/C (endpoint: median survival time, dose: 6.25 mg/kg/injection, schedule: Q01DX009 (ip), vehicle: water) was 157 % of control and the T/C (endpoint: median survival time, dose: 12.5 mg/kg/injection, schedule: Q01DX009 (ip), vehicle: distilled water + Tween-80) was 167 % of control. The T/C (endpoint: median survival time, dose: 12.5 mg/kg/injection, schedule: Q01DX009 (ip), vehicle: other) was 170 % of control and the T/C (endpoint: median survival time, dose: 12.5 mg/kg/injection, schedule: Q01DX009 (ip), vehicle: water) was 180 % of control.

For `Cc1ccc(S(=O)(=O)OCC2OC3(COS(=O)(=O)c4ccc(C)cc4)OC(C)(C)OC3C2O)cc1` (stereo not given), the T/C [1] was 93 % of control and the T/C [2] was 101 % of control.

With `CC(C)OC(CCCl)c1ccc(Cl)cc1` (stereo not given) the T/C [4] was 104 % of control, the T/C [1] was 94 % of control and the T/C [5] was 96 % of control. The T/C [2] was 96 % of control, the T/C [6] was 89 % of control and the T/C [3] was 97 % of control.

With `O=C(O)C(=O)O.[Ru].c1cnc2c(c1)ccc1cccnc12.c1cnc2c(c1)ccc1cccnc12` the T/C (endpoint: mean survival time, dose: 3.13 mg/kg/injection, schedule: Q04DX003 (ip), vehicle: water) was 95 % of control, the T/C (endpoint: mean survival time, dose: 6.25 mg/kg/injection, schedule: Q04DX003 (ip), vehicle: water) was 96 % of control and the T/C (endpoint: mean survival time, dose: 12.5 mg/kg/injection, schedule: Q04DX003 (ip), vehicle: water) was 93 % of control. The T/C (endpoint: mean survival time, dose: 25.0 mg/kg/injection, schedule: Q04DX003 (ip), vehicle: water) was 93 % of control, the T/C (endpoint: mean survival time, dose: 50.0 mg/kg/injection, schedule: Q04DX003 (ip), vehicle: water) was 95 % of control and the T/C (endpoint: mean survival time, dose: 100.0 mg/kg/injection, schedule: Q04DX003 (ip), vehicle: water) was 91 % of control. For the same compound, the T/C (endpoint: mean survival time, dose: 200.0 mg/kg/injection, schedule: Q04DX003 (ip), vehicle: water) was 90 % of control.

For `CCOC(=O)Cc1cnc(SC)nc1Nc1ccc(Br)cc1`, the T/C [7] was 89 % of control, the T/C [8] was 89 % of control and the T/C [9] was 100 % of control.

With `C/C(=C\c1ccccc1)CCC(=O)O` the T/C (endpoint: mean survival time, dose: 50.0 mg/kg/injection, schedule: Q04DX003 (ip), vehicle: saline) was 100 % of control, the T/C (endpoint: mean survival time, dose: 100.0 mg/kg/injection, schedule: Q04DX003 (ip), vehicle: saline) was 103 % of control and the T/C (endpoint: mean survival time, dose: 200.0 mg/kg/injection, schedule: Q04DX003 (ip), vehicle: saline) was 97 % of control.

With `CC(=O)NCC(O)C(O)C(O)C(O)COC(=O)c1ccccc1` (stereo not given) the T/C [7] was 95 % of control, the T/C [8] was 95 % of control and the T/C [9] was 96 % of control.

For `N#CCSc1ncnc2nc[nH]c12`, the T/C (endpoint: mean survival time, dose: 15.0 mg/kg/injection, schedule: Q01DX009 (ip), vehicle: saline) was 95 % of control and 107 % of control, the T/C (endpoint: mean survival time, dose: 30.0 mg/kg/injection, schedule: Q01DX009 (ip), vehicle: saline) was 110 % of control and 112 % of control and the T/C (endpoint: mean survival time, dose: 60.0 mg/kg/injection, schedule: Q01DX009 (ip), vehicle: saline) was 110 % of control. For the same compound, the T/C (endpoint: median survival time, dose: 30.0 mg/kg/injection, schedule: Q01DX009 (ip), vehicle: saline) was 100 % of control and the T/C (endpoint: median survival time, dose: 60.0 mg/kg/injection, schedule: Q01DX009 (ip), vehicle: saline) was 122 % of control.

`CC(=O)C1=C2c3ccccc3C(=O)c3c(Br)cc(S(=O)(=O)O)c(c32)NC1` was tested, and the T/C [7] was 94 % of control, the T/C [8] was 94 % of control and the T/C [9] was 90 % of control.

In the case of `O=C(O)c1ccccc1SSc1ccccc1C(=O)O`, the T/C (endpoint: mean survival time, dose: 50.0 mg/kg/injection, schedule: Q01DX009 (ip), vehicle: saline with Tween-80) is reported as 89 % of control, the T/C [4] is reported as 101 % of control and the T/C [1] is reported as 102 % of control. For the same compound, the T/C [5] was 95 % of control and the T/C [2] was 104 % of control.

`COc1cc(CCCCl)cc(OC)c1OC` was tested, and the T/C (endpoint: mean survival time, dose: 100.0 mg/kg/injection, schedule: Q04DX002 (ip), vehicle: saline with Tween-80) was 100 % of control, the T/C (endpoint: mean survival time, dose: 200.0 mg/kg/injection, schedule: Q04DX002 (ip), vehicle: saline with Tween-80) was 100 % of control and the T/C (endpoint: mean survival time, dose: 400.0 mg/kg/injection, schedule: Q04DX002 (ip), vehicle: saline with Tween-80) was 103 % of control.

In the case of `BrC(Br)(Br)c1ccc2ccccc2n1`, the T/C [4] is reported as 96 % of control, the T/C [5] is reported as 94 % of control and the T/C [6] is reported as 102 % of control.

In the case of `Cc1ccc(Cc2cc(=O)[nH]c(=O)[nH]2)cc1`, the T/C (endpoint: mean survival time, dose: 25.0 mg/kg/injection, schedule: Q01DX009 (ip), vehicle: Klucel (hydroxypropylcellulose) (HPC)) is reported as 96 % of control, the T/C (endpoint: mean survival time, dose: 50.0 mg/kg/injection, schedule: Q01DX009 (ip), vehicle: Klucel (hydroxypropylcellulose) (HPC)) is reported as 100 % of control and the T/C (endpoint: mean survival time, dose: 100.0 mg/kg/injection, schedule: Q01DX009 (ip), vehicle: Klucel (hydroxypropylcellulose) (HPC)) is reported as 94 % of control and 96 % of control.

`COc1cc(Cc2cnc(NC(C)=O)nc2NC(C)=O)cc(OC)c1OC` was tested, and the T/C [3] was 93 % of control.

In the case of `CC12C3C4C5C3C1(C)C(C42)C51OCCO1` (stereo not given), the T/C (endpoint: mean survival time, dose: 12.5 mg/kg/injection, schedule: Q04DX002 (ip), vehicle: saline with Tween-80) is reported as 100 % of control and the T/C (endpoint: mean survival time, dose: 25.0 mg/kg/injection, schedule: Q04DX002 (ip), vehicle: saline with Tween-80) is reported as 100 % of control.
